Measurements taken from patent US9657079B2, “Truncated GLP-1 derivatives and their therapeutical use” (Novo Nordisk A/S, priority 2007, dated 2017).
Where a SMILES comes first, the peptide text is derived from it. [ ]: non-standard residue; d: D form. Aib = CC(C)(N)C(=O)O

What was measured:
human GLP-1 receptor [1] = molecular target: T1, human GLP-1 receptor (Homo sapiens, UniProt P43220); experiment: Displacement of 125I-GLP-1 from the GLP-1 receptor, BHK tk-ts13 membranes (SPA); conditions: displacement of 125I-GLP-1, BHK tk-ts13 membranes, read-out: IC50, binding affinity to the GLP-1 receptor
T1 construct: expressed in transfected cells; purified plasma membranes
T1 sequence (P43220 24-463): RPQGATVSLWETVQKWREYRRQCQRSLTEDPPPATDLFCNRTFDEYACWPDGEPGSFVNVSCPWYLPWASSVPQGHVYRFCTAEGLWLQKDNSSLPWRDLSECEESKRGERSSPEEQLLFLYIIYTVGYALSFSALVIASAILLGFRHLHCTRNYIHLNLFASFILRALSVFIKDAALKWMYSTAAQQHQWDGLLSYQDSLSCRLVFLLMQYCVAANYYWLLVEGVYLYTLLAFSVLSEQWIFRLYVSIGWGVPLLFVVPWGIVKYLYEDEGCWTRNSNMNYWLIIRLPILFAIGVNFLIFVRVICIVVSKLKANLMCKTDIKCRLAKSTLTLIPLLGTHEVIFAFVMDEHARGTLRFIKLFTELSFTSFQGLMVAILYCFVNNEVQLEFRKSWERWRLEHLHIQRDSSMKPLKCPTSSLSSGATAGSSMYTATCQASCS
From the text: In a second aspect, the GLP-1 analogue or derivative thereof (“GLP-1 compound”) has a high affinity to the GLP-1 receptor. The affinity to the GLP-1 receptor may be determined as described in Example 23, i.e. by way of displacement of ^125I-GLP-1 from the receptor. BHK cells may be used for membrane preparation, preferably strain tk-ts13. The membranes may be purified, preferably as described in Example 23, A preferred binding assay method is the SPA assay of Example 23.
The binding affinity of a number of GLP-1 compounds of the invention (compounds of Examples 1-7, and 9-18) to the human GLP-1 receptor was measured by way of their ability to displace ^125I-GLP-1 from the receptor.
Species (in vitro): Hamster
Biological End Point: Receptor Binding
The cells (approx. 80% confluence) were washed twice in PBS and harvested (PBS+EDTA or Versene), following which they were separated by centrifugation at 1000 rpm for 5 min. The cells/cell pellet must be kept on ice to the extent possible in the subsequent steps. The cell pellet was homogenised with Ultrathurrax for 20-30 seconds in a suitable amount of Buffer 1 (depending on the amount of cells, but e.g. 10 ml). The homogenate as centrifuged at 20000 rpm for 15 minutes. The pellet was resuspended (homogenised) in 10 ml Buffer 2 and re-centrifuged. This step was repeated once more. The resulting pellet was resuspended in Buffer 2, and the protein concentration was determined. The membranes were stored at −80° C.
Buffer 1: 20 mM Na-HEPES+10 mM EDTA, pH 7.4
Buffer 2: 20 mM Na-HEPES+0.1 mM EDTA, pH 7.4
Test compounds/peptides, membranes, SPA-particles and [^125I] are diluted in assay buffer. 25 ul (micro liter) of test compounds/peptides are added to Optiplate. Buffer is added (50 ul). Add 5-10 ug protein/sample (50 ul) corresponding to 0.1-0.2 mg protein/ml (to be preferably optimised for each membrane preparation). Add SPA-particles (Wheatgerm agglutinin SPA beads) RPNQ 0001) 0.5 mg/well (50 ul). Start the incubation with [I^125]-GLP-1 (final concentration 0.05 nM corresponding to 49.880 DPM, 25 ul). The plates are sealed with PlateSealer. Incubate for 120 minutes at 30° C. while shaking. The plates are centrifuged (1500 rpm, 10 min) and counted in Topcounter.
Assay buffer: 50 mM HEPES

[2] = molecular target: T2, isolated N-terminal extracellular domain of the GLP-1R receptor (nGLP-1R) (Homo sapiens, UniProt P43220); experiment: Displacement of 125I-Exendin-4(9-39) from nGLP-1R (SPA); type: binding; conditions: SPA beads, read-out: affinity to nGLP-1R (IC50)
T2 construct: isolated N-terminal extracellular domain of the GLP-1R receptor (nGLP-1R); made in house
T2 sequence (P43220 24-139 limits assumed): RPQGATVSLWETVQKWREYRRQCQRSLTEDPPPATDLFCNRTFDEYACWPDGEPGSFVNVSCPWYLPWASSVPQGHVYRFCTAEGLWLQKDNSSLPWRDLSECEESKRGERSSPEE
Experimental: The protein is then biotinylated and immobilized, preferably on streptavidin-coated SPA beads. The nGLP1R in a suitable buffer such as 0.1M NaHCO3 may be biotinylated using 75 μg BNHS (Sigma H1759) to 1 mg protein. The biotinylated nGLP1R is subsequently preferably dialyzed against PBS. […] The plates are incubated on a shaker, preferably at RT for 3 hours. The SPA particles may be spun down by centrifugation, e.g. for 10 min at 1500 rpm, and the plates are counted, e.g. in a TopCount-NXT (PerkinElmer).
The nGLP1R in 0.1M NaHCO3 was biotinylated using 75 μg BNHS (Sigma H1759) to 1 mg protein. The biotinylated nGLP1R was subsequently dialyzed against PBS. All reagents and derivatives were diluted in PBS with 0.05% v/v Tween 20. […] The plates were incubated on a shaker at RT for 3 hours. The SPA particles were spun down by centrifugation for 10 min at 1500 rpm and the plates were counted in a TopCount-NXT (PerkinElmer).

human GLP-1 receptor [3] = molecular target: T1, human GLP-1 receptor; experiment: Stimulation of cAMP formation, plasma membranes from BHK467-12A (tk-ts13) cells, AlphaScreen cAMP kit; type: biochemical; conditions: membranes of BHK467-12A (tk-ts13) expressing the human GLP-1 receptor; read-out: potency (EC50), cAMP formation
Experimental: In particular embodiments (i) baby hamster kidney (BHK) cells expressing the cloned human GLP-1 receptor are used, preferably BHK-467-12A, more preferably BHK-467-12A (tk-ts13); (ii) the cells are grown in DMEM media with the addition of 100 IU/mL penicillin, 100 μg/mL streptomycin, 5% fetal calf serum and 0.5 mg/mL Geneticin G-418 (Life Technologies), preferably at 5% CO2; (iii) the cells, preferably at approximately 80% confluence, are washed twice in phosphate buffered saline; (iv) the cells are harvested with an aqueous solution of tetrasodium salt of ethylenediaminetetraacetic acid, such as Versene; (v) plasma membranes are prepared from the cells by homogenisation, preferably in buffer 1; the homogenate is centrifuged, e.g. at 48,000×g for 15 min at 4° C.; and/or (vii) the pellet is suspended by homogenization in buffer 2. Steps (vi) and (vii) are preferably repeated, e.g. one or two times more.
The functional receptor assay may be carried out as described in Example 21 by measuring cyclic AMP (cAMP) as a response to stimulation by the insulinotropic agent. cAMP formed is preferably quantified by the AlphaScreen™ cAMP Kit (Perkin Elmer Life Sciences). Incubations may be carried out in half-area 96-well microtiter plates in a total volume of 50 μL buffer 3 (50 mM Tris-HCI, 5 mM HEPES, 10 mM MgCl2, pH 7.4) and with the following additions: 1 mM ATP, 1 μM GTP, 0.5 mM 3-isobutyl-1-methylxanthine (IBMX), 0.01% Tween-20, 0.1% BSA, 6 μg membrane preparation, 15 μg/mL acceptor beads, 20 μg/mL donor beads preincubated with 6 nM biotinyl-cAMP. Analogues or derivatives to be tested for agonist activity are preferably dissolved and diluted in buffer 3. GTP is freshly prepared for each experiment. […]
For comparison, the potency of truncated natural, human GLP-1(7-33) was also determined.
Purified plasma membranes from a stable transfected cell line, BHK467-12A (tk-ts13), expressing the human GLP-1 receptor was stimulated with GLP-1 compound in question, and the potency of cAMP production was measured using the AlphaScreen™ cAMP Assay Kit from Perkin Elmer Life Sciences. […]
Cells at approximate 80% confluence are washed 2× with PBS (Phosphate Buffered Saline) and harvested with Versene (aqueous solution of the tetrasodium salt of ethylenediaminetetraacetic acid), centrifuged 5 min at 1000 rpm and the supernatant removed. […] Suspension in Buffer 2, homogenization and centrifugation is repeated once and the membranes are resuspended in Buffer 2 and ready for further analysis or stored at −80° C.
The functional receptor assay was carried out by measuring the peptide induced cAMP production by The AlphaScreen Technology. […] Formed cAMP is counted and measured at a Alpha Fusion Microplate Analyzer. […]

Row | IC50 (human GLP-1 receptor [1]) | IC50 [2] | EC50 (human GLP-1 receptor [3]) | SMILES
1 | 0.24 to 44 nM | 200 to 1500 nM | < 0.3 nM | CC[C@H](C)[C@H](NC(=O)[C@H](Cc1ccccc1)NC(=O)[C@H](CCC(=O)O)NC(=O)[C@H](CCCNC(=N)N)NC(=O)[C@@H](NC(=O)[C@H](C)NC(=O)[C@H](CCC(N)=O)NC(=O)[C@H](CCC(=O)O)NC(=O)[C@H](CCC(=O)O)NC(=O)[C@H](CCCCN)NC(=O)[C@H](Cc1ccc(O)cc1)NC(=O)[C@H](CO)NC(=O)[C@H](CO)NC(=O)[C@@H](NC(=O)[C@H](CC(=O)O)NC(=O)[C@H](CO)NC(=O)[C@@H](NC(=O)[C@H](Cc1ccccc1)NC(=O)[C@@H](NC(=O)CNC(=O)[C@H](CCC(=O)O)NC(=O)C(C)(C)NC(=O)[C@@H](N)Cc1c[nH]cn1)[C@@H](C)O)[C@@H](C)O)C(C)C)C(C)C)C(=O)N[C@@H](CCC(=O)O)C(=O)N[C@@H](Cc1c[nH]c2ccccc12)C(=O)N[C@@H](CC(C)C)C(=O)N[C@H](C(N)=O)C(C)C [Example 5, [Aib8,Lys20,Glu22,Val25,Arg26,Glu30] GLP-1 (7-33) Amide] (H-H[Aib]EGTFTSDVSSYKEEQAVREFIEWLV-NH2)
2 | 0.24 to 44 nM | 200 to 1500 nM | < 0.3 nM | CC[C@H](C)[C@H](NC(=O)[C@H](Cc1ccccc1)NC(=O)[C@H](CCC(=O)O)NC(=O)[C@H](CCCNC(=N)N)NC(=O)[C@H](C)NC(=O)[C@H](C)NC(=O)[C@H](CCC(N)=O)NC(=O)[C@H](CCC(=O)O)NC(=O)[C@H](CCC(=O)O)NC(=O)[C@H](CC(C)C)NC(=O)[C@H](Cc1ccc(O)cc1)NC(=O)[C@H](CO)NC(=O)[C@H](CO)NC(=O)[C@@H](NC(=O)[C@H](CC(=O)O)NC(=O)[C@H](CO)NC(=O)[C@@H](NC(=O)[C@H](Cc1ccccc1)NC(=O)[C@@H](NC(=O)CNC(=O)[C@H](CCC(=O)O)NC(=O)[C@H](C)NC(=O)[C@@H](N)Cc1c[nH]cn1)[C@@H](C)O)[C@@H](C)O)C(C)C)C(=O)N[C@@H](C)C(=O)N[C@@H](Cc1c[nH]c2ccccc12)C(=O)N[C@@H](CC(C)C)C(=O)N[C@H](C(N)=O)C(C)C [Example 1, [Glu22,Arg26]GLP-1 (7-33) Amide] (H-HAEGTFTSDVSSYLEEQAAREFIAWLV-NH2)
3 | 0.24 to 44 nM | 200 to 1500 nM | < 0.3 nM | CC[C@H](C)[C@H](NC(=O)[C@H](Cc1ccccc1)NC(=O)[C@H](CCC(=O)O)NC(=O)[C@H](CCCNC(=N)N)NC(=O)[C@@H](NC(=O)[C@H](C)NC(=O)[C@H](CCC(N)=O)NC(=O)[C@H](CCC(=O)O)NC(=O)[C@H](CCC(=O)O)NC(=O)[C@H](CC(C)C)NC(=O)[C@H](Cc1ccc(O)cc1)NC(=O)[C@H](CO)NC(=O)[C@H](CO)NC(=O)[C@@H](NC(=O)[C@H](CC(=O)O)NC(=O)[C@H](CO)NC(=O)[C@@H](NC(=O)[C@H](Cc1ccccc1)NC(=O)[C@@H](NC(=O)CNC(=O)[C@H](CCC(=O)O)NC(=O)[C@H](C)NC(=O)[C@@H](N)Cc1c[nH]cn1)[C@@H](C)O)[C@@H](C)O)C(C)C)C(C)C)C(=O)N[C@@H](C)C(=O)N[C@@H](Cc1c[nH]c2ccccc12)C(=O)N[C@@H](CC(C)C)C(=O)N[C@H](C(N)=O)C(C)C [Example 4, [Glu22, Val25, Arg26] GLP-1 (7-33)amide] (H-HAEGTFTSDVSSYLEEQAVREFIAWLV-NH2)
4 | 0.24 to 44 nM | 200 to 1500 nM | < 0.3 nM | CC[C@H](C)[C@H](NC(=O)[C@H](Cc1ccccc1)NC(=O)[C@H](CCC(=O)O)NC(=O)[C@H](CCCNC(=N)N)NC(=O)[C@H](C)NC(=O)[C@H](C)NC(=O)[C@H](CCC(N)=O)NC(=O)[C@H](CCC(=O)O)NC(=O)[C@H](CCC(=O)O)NC(=O)[C@H](CC(C)C)NC(=O)[C@H](Cc1ccc(O)cc1)NC(=O)[C@H](CO)NC(=O)[C@H](CO)NC(=O)[C@@H](NC(=O)[C@H](CC(=O)O)NC(=O)[C@H](CO)NC(=O)[C@@H](NC(=O)[C@H](Cc1ccccc1)NC(=O)[C@@H](NC(=O)CNC(=O)[C@H](CCC(=O)O)NC(=O)[C@H](C)NC(=O)[C@@H](N)Cc1c[nH]cn1)[C@@H](C)O)[C@@H](C)O)C(C)C)C(=O)N[C@@H](C)C(=O)N[C@@H](Cc1c[nH]c2ccccc12)C(=O)N[C@@H](CC(C)C)C(=O)N[C@H](C(=O)O)C(C)C [Example 7, [Glu22, Arg26]GLP-1(7-33)peptide] (H-HAEGTFTSDVSSYLEEQAAREFIAWLV-OH)
